Patent US11033537B2, “LPT-723 and immune checkpoint inhibitor combinations and methods of treatment” (BIOMED VALLEY DISCOVERIES, INC., priority 2015, dated 2021)

Tests used:
Pan02 cells = assay: In vitro cell viability assay (CellTiter-Glo), Pan02; format: cell-based, murine; conditions: Mus musculus
Source text: No significant changes in body weights were noted.

[1] = tested on: Colon26 murine colon cancer cells; assay: Prophylactic Colon26 colon cancer model; format: in vivo, BALB/c mice; conditions: alone or with antibody
Experimental: Charles River (CR) BALB/c mice were implanted with Colon26 murine colon cancer cells on Day 1, and treatment was initiated on Day 3 with control (vehicle), anti-CTLA-4 (clone 4F10), anti-PD-1 (clone RMP1-14), anti-CTLA-4/anti-PD-1 combination, LPT-723 (10 mpk, 30 mpk), anti-CTLA-4/LPT-723 (10 mpk, 30 mpk) combination, or anti-PD-1/LPT-723 (10 mpk, 30 mpk) combination. Anti-CTLA-4 was dosed i.p. on Day 8 at a dose of 100 μg/animal and on Days 11, and 14 at a dose of 50 μg/animal. Anti-PD-1 was dosed i.p. twice a week for two weeks starting on Day 3 at a dose of 100 μg/animal. LPT-723 was dosed per os (p.o.) twice a day starting on Day 3.

Cc1cc(-c2cncc(C(O)C(F)(F)F)c2)nc2c1C(=O)N(c1cnn(CC(F)F)c1)C2(C)C (stereo not shown) [LPT-723]
IC50 (Pan02 cells): 26.6 µM
% TGD ([1]; MR237 10 mg/kg bid): 0%
T-C ([1]; MR237 10 mg/kg bid): −0
TFS ([1]; MR237 10 mg/kg bid): 0
Median TTE ([1]; MR237 10 mg/kg p.o. bid from Day 3 to end): 31.9
% TGD ([1]; MR237 30 mg/kg bid): 5%
T-C ([1]; MR237 30 mg/kg bid): 1.7
TFS ([1]; MR237 30 mg/kg bid): 1
MTV (n), Day 57 ([1]; MR237 30 mg/kg bid, Day 57): 0 (1)
Median TTE ([1]; MR237 30 mg/kg p.o. bid from Day 3 to end): 33.7
